Laboratory results reported in PMC8484168 (Cancer Chemotherapy and Pharmacology, 2021).
Like-named read-outs stand apart in the source and are kept apart here.

Tests used:
[1] = DDI analysis: geometric mean ratio of probe drug PK with versus without rucaparib; format: in vivo, human; details: Arm B; steady-state rucaparib
Excerpt: The DDI analysis population included patients who completed the DDI assessment per protocol and had sufficient PK data to calculate Cmax and AUC of the probe drug with and without rucaparib. […] With the assumption that intrapatient PK variability would be 35% for the probe drugs, a total enrollment of 32 patients was planned for this study: 16 for Arm A and 16 for Arm B. […] The primary PK parameters were natural log-transformed before assessment with a paired t test.

[2] = Plasma PK of rosuvastatin and oral contraceptives with and without rucaparib (phase 1 DDI study, noncompartmental analysis); format: in vivo, human; details: for detected in human plasma up to (postdose): 30 µg dose, LC–MS/MS; for AUC(0-inf) / AUC(0-t) / Cmax / half-life / Vd/F / Tmax: human; for AUC(0-inf) / AUC(0-t) / Cmax / half-life / Vd/F: po; for Tmax: read-out: tmax, Median (range); for change of median tmax with rucaparib: with vs without rucaparib
Excerpt: This was a 2-part, phase 1, open-label, 2-arm DDI study in patients with advanced solid tumors. In Part 1 of the study, patients were screened for eligibility from day − 28 to − 2 and visited the study site from day − 1 to 23 (Fig. 1). […] To check steady-state plasma concentrations for rucaparib, a blood sample was collected prior to the dosing of rucaparib on days 5, 9, 11, 15, and 19–23.
Other PK parameters, calculated for the probe drugs, included half-life (t1/2), tmax, apparent total clearance of drug after oral administration (CL/F), and apparent volume of distribution during terminal phase (VZ/F). The PK parameter calculated for rucaparib at steady state was trough plasma concentration (Cmin). PK parameters were calculated by noncompartmental analysis using Phoenix WinNonlin, version 8.1 (Certara, Princeton, NJ).
Details are provided in Online Resource 1.
The LC consisted of a Gemini NX C18 column (2 x 50 mm, 3 μm, Phenomenex, Torrance, CA) and was eluted with a gradient consisting of 0.1% acetic acid in water as mobile phase A and with 100% acetonitrile as mobile phase B at an initial flow rate of 0.5 mL/min at room temperature. The MS/MS consisted of an AB SCIEX API5000 system and was operated with Analyst version 1.6.2 in TurboIonSpray and positive ionization mode. […] The concentration range for quantitation was 0.1–100 ng/mL.
Separation between potential metabolites and interfering endogenous compounds was achieved by ultra-high performance liquid chromatography with a CSH C18 column at 40°C and gradient elution using 0.1% formic acid in water as mobile phase A and acetonitrile as mobile phase B, operating at an initial flow rate of 0.800 mL/min. A triple quadrupole mass spectrometer (Triple Quad 6500) equipped with a turbo ion spray source was used for detection in positive ion mode.

[3] = plasma, 600 mg, with rucaparib 600 mg BID (day 19), single oral dose, plasma, read-out: AUC0–inf, GM (%CV)
[4] = plasma, 600 mg, with rucaparib 600 mg BID (day 19), single oral dose, plasma, read-out: AUC0–inf, Mean (SD)
[5] = plasma, 600 mg, with rucaparib 600 mg BID (day 19), single oral dose, plasma, read-out: AUC0–inf, Median (range)
[6] = plasma, 600 mg, with rucaparib 600 mg BID (day 19), single oral dose, plasma, read-out: AUC0–last, GM (%CV)
[7] = plasma, 600 mg, with rucaparib 600 mg BID (day 19), single oral dose, plasma, read-out: AUC0–last, Mean (SD)
[8] = plasma, 600 mg, with rucaparib 600 mg BID (day 19), single oral dose, plasma, read-out: AUC0–last, Median (range)
[9] = plasma, 600 mg, with rucaparib 600 mg BID (day 19), single oral dose, plasma, read-out: Cmax, GM (%CV)
[10] = plasma, 600 mg, with rucaparib 600 mg BID (day 19), single oral dose, plasma, read-out: Cmax, Median (range)
[11] = plasma, 600 mg, with rucaparib 600 mg BID (day 19), single oral dose, plasma, read-out: t1/2, GM (%CV) (converted)
[12] = plasma, 600 mg, with rucaparib 600 mg BID (day 19), single oral dose, plasma, read-out: t1/2, Mean (SD) (converted)
[13] = plasma, 600 mg, with rucaparib 600 mg BID (day 19), single oral dose, plasma, read-out: t1/2, Median (range) (converted)
[14] = plasma, 600 mg, with rucaparib 600 mg BID (day 19), single oral dose, read-out: VZ/F, GM (%CV)
[15] = plasma, 600 mg, with rucaparib 600 mg BID (day 19), single oral dose, read-out: VZ/F, Mean (SD)
[16] = plasma, 600 mg, with rucaparib 600 mg BID (day 19), single oral dose, read-out: VZ/F, Median (range)
[17] = plasma, without rucaparib (day 1), single oral dose, plasma, PK analysis population, read-out: Cmax, Mean (SD)
[18] = plasma, without rucaparib (day 1), single oral dose, plasma, read-out: AUC0–inf, GM (%CV)
[19] = plasma, without rucaparib (day 1), single oral dose, plasma, read-out: AUC0–inf, Mean (SD)
[20] = plasma, without rucaparib (day 1), single oral dose, plasma, read-out: AUC0–inf, Median (range)
[21] = plasma, without rucaparib (day 1), single oral dose, plasma, read-out: AUC0–last, Mean (SD)
[22] = plasma, without rucaparib (day 1), single oral dose, plasma, read-out: AUC0–last, Median (range)
[23] = plasma, without rucaparib (day 1), single oral dose, plasma, read-out: Cmax, GM (%CV)
[24] = plasma, without rucaparib (day 1), single oral dose, plasma, read-out: Cmax, Median (range)
[25] = plasma, without rucaparib (day 1), single oral dose, plasma, read-out: t1/2, GM (%CV) (converted)
[26] = plasma, without rucaparib (day 1), single oral dose, plasma, read-out: t1/2, Mean (SD) (converted)
[27] = plasma, without rucaparib (day 1), single oral dose, plasma, read-out: t1/2, Median (range) (converted)
[28] = plasma, without rucaparib (day 1), single oral dose, read-out: VZ/F, GM (%CV)
[29] = plasma, without rucaparib (day 1), single oral dose, read-out: VZ/F, Mean (SD)
[30] = plasma, without rucaparib (day 1), single oral dose, read-out: VZ/F, Median (range)
[31] = without rucaparib (day 1), single oral dose, plasma
[32] = with rucaparib 600 mg BID (day 19), single oral dose
[33] = without rucaparib (day 1), single oral dose

Row | SMILES | AUC increase with rucaparib [1] | Cmax increase with rucaparib [1] [fold] | AUC(0-inf) [2, 3] [ng·h/mL] | AUC(0-inf) [2, 4] [ng·h/mL] | AUC(0-inf) [2, 5] [ng·h/mL] | AUC(0-t) [2, 6] [ng·h/mL] | AUC(0-t) [2, 7] [ng·h/mL] | AUC(0-t) [2, 8] [ng·h/mL] | Cmax [2, 9] [ng/mL] | Cmax [2, 10] [ng/mL] | half-life [2, 11] [h] | half-life [2, 12] [h] | half-life [2, 13] [h] | Vd/F [2, 14] [L] | Vd/F [2, 15] [L] | Vd/F [2, 16] [L] | Cmax [2, 17] [ng/mL] | AUC(0-inf) [2, 18] [ng·h/mL] | AUC(0-inf) [2, 19] [ng·h/mL] | AUC(0-inf) [2, 20] [ng·h/mL] | also measured
1 | C#C[C@]1(O)CC[C@H]2[C@@H]3CCc4cc(O)ccc4[C@H]3CC[C@@]21C [ethinylestradiol] | approximately 1.4 fold | < 1.25 | 1.41 | 1.49 | 1.37 | 1.15 | 1.24 | 1.18 | 0.0784 | 0.0756 | 24.8 | 30 | 27.1 | 653 | 684 | 620 | 0.0792 | 0.962 | 0.994 | 1 | detected in human plasma up to (postdose) ([2]; with rucaparib): ≤ 72 h; detected in human plasma up to (postdose) ([2]; without rucaparib): up to 48 h; AUC(0-t) [2, 21]: 0.804 ng·h/mL; AUC(0-t) [2, 22]: 0.775 ng·h/mL; Cmax [2, 23]: 0.0732 ng/mL; Cmax [2, 24]: 0.0734 ng/mL; half-life [2, 25]: 15.9 h; half-life [2, 26]: 17 h; half-life [2, 27]: 18.1 h; Vd/F [2, 28]: 772 L; Vd/F [2, 29]: 792 L; Vd/F [2, 30]: 772 L; Tmax [2, 31]: 1 h; Cmax, Mean (SD) ([2]; with rucaparib 600 mg BID (day 19), single oral dose, plasma, PK analysis population): 0.0893 (0.0443) ng/mL; change of median tmax with rucaparib [2]: 0.5 h
2 | C#C[C@]1(O)CC[C@H]2[C@@H]3CCC4=CC(=O)CC[C@@H]4[C@H]3CC[C@@]21CC [levonorgestrel] | ~1.6 fold | < 1.25 | 102 | 109 | 87.3 | 77.5 | 86 | 80.4 | 3.43 | 3.48 | 46.6 | 50 | 43.6 | 77.6 | 82.8 | 85.6 | 3.32 | 64 | 72.7 | 55.4 | Cmax ([2]; plasma, 600 mg, with rucaparib 600 mg BID (day 19), single oral dose, plasma, PK analysis population, read-out: Cmax, Mean (SD)): 3.77 ng/mL; AUC(0-t) ([2]; plasma, without rucaparib (day 1), single oral dose, plasma, read-out: AUC0–last, GM (%CV)): 52.9 ng·h/mL; AUC(0-t) [2, 21]: 59.7 ng·h/mL; AUC(0-t) [2, 22]: 45.3 ng·h/mL; Cmax [2, 23]: 3.17 ng/mL; Cmax [2, 24]: 3.29 ng/mL; half-life [2, 25]: 38.5 h; half-life [2, 26]: 41.1 h; half-life [2, 27]: 37.1 h; Vd/F [2, 28]: 103 L; Vd/F [2, 29]: 113 L; Vd/F [2, 30]: 114 L; Tmax ([2]; with rucaparib 600 mg BID (day 19), single oral dose, plasma): 1.5 h; Tmax [2, 31]: 1.51 h; CL/F, Mean (SD) [2, 32]: 1.57 (0.531) L/h; CL/F, Median (range) [2, 32]: 1.72 (0.701–2.39) L/h; change of median tmax with rucaparib [2]: remained the same; CL/F, Mean (SD) [2, 33]: 2.57 (1.01) L/h; CL/F, Median (range) [2, 33]: 2.71 (0.891–3.84) L/h
